Measurements: ChEMBL document CHEMBL5321194 (J Med Chem, 2023)
In brackets after ≈: the same amount, converted by molar mass.

Tests used:
SRSF protein kinase 3 [1] = target: T1, SRSF protein kinase 3 (Homo sapiens, UniProt Q9UPE1)
SRSF protein kinase 2 [2] = target: T2, SRSF protein kinase 2 (Homo sapiens, UniProt P78362)
Target sequence in this assay (P78362 whole entry): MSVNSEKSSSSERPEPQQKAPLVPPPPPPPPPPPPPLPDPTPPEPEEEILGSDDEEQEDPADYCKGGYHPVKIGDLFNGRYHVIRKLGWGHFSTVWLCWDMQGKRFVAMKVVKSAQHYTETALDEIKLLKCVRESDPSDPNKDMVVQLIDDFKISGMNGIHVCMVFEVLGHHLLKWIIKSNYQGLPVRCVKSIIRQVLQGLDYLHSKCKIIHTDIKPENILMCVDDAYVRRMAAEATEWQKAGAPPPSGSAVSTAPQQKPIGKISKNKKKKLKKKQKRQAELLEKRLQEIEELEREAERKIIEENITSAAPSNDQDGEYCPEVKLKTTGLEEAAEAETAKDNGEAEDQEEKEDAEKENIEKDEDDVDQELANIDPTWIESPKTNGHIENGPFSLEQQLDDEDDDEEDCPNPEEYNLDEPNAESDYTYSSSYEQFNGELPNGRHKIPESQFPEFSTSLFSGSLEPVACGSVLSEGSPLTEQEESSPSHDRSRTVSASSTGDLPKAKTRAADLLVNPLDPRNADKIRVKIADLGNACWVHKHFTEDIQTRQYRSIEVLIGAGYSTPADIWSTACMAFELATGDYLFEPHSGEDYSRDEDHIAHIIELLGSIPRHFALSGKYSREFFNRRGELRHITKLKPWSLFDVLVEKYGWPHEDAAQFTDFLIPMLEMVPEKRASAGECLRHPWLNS

[3] = target: Dual specificity tyrosine-phosphorylation-regulated kinase 1B (Homo sapiens, UniProt Q9Y463)
[4] = target: Dual specificity tyrosine-phosphorylation-regulated kinase 1A (Homo sapiens, UniProt Q13627)
[5] = target: Dual specificity protein kinase CLK4 (Homo sapiens, UniProt Q9HAZ1); test: Inhibition of human CLK4 using myelin basic protein as substrate in presence of [gamma-33p]-ATP by radiometric hotspot kinase
Chain of Dual specificity protein kinase CLK4 (Q9HAZ1 whole entry): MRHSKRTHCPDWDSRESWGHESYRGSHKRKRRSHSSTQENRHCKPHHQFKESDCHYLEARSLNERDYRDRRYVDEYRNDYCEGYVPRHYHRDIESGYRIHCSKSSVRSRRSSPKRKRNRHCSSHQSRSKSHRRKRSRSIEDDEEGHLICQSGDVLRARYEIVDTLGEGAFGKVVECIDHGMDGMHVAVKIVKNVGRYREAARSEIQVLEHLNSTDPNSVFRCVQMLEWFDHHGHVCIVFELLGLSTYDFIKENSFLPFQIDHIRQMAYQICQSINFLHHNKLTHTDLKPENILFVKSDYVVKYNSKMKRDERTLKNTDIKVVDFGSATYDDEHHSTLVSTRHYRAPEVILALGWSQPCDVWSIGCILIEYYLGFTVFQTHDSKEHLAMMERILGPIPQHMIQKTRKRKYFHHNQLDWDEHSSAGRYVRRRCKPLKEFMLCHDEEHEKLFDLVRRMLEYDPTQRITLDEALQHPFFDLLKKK

[6] = target: Dual specificity protein kinase CLK2 (Homo sapiens, UniProt P49760); test: Inhibition of human CLK2 using myelin basic protein as substrate in presence of [gamma-33p]-ATP by radiometric hotspot kinase
Chain of Dual specificity protein kinase CLK2 (P49760 whole entry): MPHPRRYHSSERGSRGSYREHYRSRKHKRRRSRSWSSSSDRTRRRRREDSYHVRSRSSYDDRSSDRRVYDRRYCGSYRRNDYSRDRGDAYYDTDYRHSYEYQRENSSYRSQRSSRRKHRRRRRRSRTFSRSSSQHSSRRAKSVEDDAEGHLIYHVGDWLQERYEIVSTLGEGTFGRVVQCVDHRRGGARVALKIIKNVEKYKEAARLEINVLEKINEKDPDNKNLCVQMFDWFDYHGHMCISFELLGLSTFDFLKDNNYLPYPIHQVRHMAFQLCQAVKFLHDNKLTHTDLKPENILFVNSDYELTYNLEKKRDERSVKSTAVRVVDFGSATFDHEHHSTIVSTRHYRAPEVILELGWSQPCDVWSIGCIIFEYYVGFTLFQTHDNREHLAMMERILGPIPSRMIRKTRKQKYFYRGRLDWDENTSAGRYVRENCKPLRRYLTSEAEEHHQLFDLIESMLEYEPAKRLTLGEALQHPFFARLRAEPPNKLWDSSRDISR

SRSF protein kinase 1 [7] = target: T3, SRSF protein kinase 1 (Homo sapiens, UniProt Q96SB4)
T3 sequence (Q96SB4 whole entry): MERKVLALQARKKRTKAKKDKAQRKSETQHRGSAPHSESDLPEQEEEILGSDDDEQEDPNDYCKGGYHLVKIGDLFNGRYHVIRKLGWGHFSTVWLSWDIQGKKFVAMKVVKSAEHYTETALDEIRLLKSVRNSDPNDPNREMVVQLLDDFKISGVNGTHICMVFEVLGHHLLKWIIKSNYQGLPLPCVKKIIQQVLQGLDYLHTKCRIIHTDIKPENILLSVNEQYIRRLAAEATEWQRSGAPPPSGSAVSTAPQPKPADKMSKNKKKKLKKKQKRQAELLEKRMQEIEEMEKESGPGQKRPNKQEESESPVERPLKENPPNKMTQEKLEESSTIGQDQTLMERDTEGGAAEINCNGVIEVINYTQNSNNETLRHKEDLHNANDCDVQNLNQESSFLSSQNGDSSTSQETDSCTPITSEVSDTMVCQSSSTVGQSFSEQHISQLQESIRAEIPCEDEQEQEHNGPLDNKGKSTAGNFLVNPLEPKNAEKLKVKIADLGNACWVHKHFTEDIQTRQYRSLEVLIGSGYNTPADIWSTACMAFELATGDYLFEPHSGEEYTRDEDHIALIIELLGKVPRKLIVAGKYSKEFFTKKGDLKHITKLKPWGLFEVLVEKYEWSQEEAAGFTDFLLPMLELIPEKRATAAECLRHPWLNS

[8] = target: T4, Dual specificity tyrosine-phosphorylation-regulated kinase 3 (Homo sapiens, UniProt O43781)
T4 sequence (O43781 whole entry): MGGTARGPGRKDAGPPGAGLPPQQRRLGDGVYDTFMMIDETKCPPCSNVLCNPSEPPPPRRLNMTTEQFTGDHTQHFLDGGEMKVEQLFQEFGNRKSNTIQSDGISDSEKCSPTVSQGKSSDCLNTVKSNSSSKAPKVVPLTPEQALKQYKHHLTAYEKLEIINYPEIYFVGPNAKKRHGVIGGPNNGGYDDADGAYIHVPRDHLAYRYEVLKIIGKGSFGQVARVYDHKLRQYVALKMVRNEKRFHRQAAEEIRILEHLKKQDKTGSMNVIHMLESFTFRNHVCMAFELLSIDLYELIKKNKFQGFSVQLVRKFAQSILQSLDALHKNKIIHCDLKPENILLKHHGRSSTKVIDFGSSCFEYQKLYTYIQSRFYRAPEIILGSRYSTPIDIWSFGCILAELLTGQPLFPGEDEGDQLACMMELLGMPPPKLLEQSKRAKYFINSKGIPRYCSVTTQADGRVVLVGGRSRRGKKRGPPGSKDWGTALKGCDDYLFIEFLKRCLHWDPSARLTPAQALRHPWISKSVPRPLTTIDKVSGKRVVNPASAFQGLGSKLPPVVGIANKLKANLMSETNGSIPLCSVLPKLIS

[9] = target: T5, Dual specificity tyrosine-phosphorylation-regulated kinase 2 (Homo sapiens, UniProt Q92630)
T5 sequence (Q92630 whole entry): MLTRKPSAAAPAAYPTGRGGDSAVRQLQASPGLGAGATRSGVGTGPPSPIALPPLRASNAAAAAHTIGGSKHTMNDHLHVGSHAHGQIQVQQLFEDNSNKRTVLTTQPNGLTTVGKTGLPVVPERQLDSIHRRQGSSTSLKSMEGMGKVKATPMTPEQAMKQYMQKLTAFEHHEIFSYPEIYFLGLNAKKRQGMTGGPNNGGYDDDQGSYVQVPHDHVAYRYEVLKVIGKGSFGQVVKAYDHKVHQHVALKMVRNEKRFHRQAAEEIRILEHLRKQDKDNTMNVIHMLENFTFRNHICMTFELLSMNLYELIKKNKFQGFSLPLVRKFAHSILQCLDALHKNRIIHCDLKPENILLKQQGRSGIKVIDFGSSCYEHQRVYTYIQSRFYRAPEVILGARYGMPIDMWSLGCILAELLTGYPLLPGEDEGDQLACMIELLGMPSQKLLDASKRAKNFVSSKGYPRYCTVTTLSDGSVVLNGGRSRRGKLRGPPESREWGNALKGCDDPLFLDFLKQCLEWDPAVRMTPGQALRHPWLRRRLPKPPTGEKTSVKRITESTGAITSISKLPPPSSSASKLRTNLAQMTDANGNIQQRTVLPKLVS

[10] = target: Dual specificity protein kinase CLK3 (Homo sapiens, UniProt P49761); test: Inhibition of human CLK3 using myelin basic protein as substrate in presence of [gamma-33p]-ATP by radiometric hotspot kinase
Chain of Dual specificity protein kinase CLK3 (P49761 whole entry): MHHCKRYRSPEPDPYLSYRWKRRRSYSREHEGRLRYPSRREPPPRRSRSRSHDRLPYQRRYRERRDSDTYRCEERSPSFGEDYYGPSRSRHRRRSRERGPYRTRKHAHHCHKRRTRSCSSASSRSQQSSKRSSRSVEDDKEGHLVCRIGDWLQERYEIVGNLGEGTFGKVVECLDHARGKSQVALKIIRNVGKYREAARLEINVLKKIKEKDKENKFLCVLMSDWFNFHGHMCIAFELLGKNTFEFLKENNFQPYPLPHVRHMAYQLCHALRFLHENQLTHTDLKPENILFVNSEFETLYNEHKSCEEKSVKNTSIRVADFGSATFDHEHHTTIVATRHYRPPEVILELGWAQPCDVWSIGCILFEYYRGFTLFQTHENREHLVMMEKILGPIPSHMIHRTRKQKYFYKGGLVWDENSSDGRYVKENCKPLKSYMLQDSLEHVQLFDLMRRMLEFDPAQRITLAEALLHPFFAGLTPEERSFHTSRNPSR

SRSF protein kinase 2 [11] = target: T2, SRSF protein kinase 2; remark: listed apart in the source
Target sequence in this assay (P78362 whole entry): as the sequence (P78362 whole entry) above
Description: Inhibition of N-terminal nLuc-fused SRPK2 (unknown origin) transfected in lysed HEK293T cells by NanoBRET assay

SRSF protein kinase 3 [12] = target: T1, SRSF protein kinase 3; remark: listed apart in the source
Description: Inhibition of N-terminal nLuc-fused SRPK3 (unknown origin) transfected in intact HEK293T cells by NanoBRET assay

[13] = target: Dual specificity protein kinase CLK1 (Homo sapiens, UniProt P49759); test: Inhibition of human CLK1 using myelin basic protein as substrate in presence of [gamma-33p]-ATP by radiometric hotspot kinase
Chain of Dual specificity protein kinase CLK1 (P49759 whole entry): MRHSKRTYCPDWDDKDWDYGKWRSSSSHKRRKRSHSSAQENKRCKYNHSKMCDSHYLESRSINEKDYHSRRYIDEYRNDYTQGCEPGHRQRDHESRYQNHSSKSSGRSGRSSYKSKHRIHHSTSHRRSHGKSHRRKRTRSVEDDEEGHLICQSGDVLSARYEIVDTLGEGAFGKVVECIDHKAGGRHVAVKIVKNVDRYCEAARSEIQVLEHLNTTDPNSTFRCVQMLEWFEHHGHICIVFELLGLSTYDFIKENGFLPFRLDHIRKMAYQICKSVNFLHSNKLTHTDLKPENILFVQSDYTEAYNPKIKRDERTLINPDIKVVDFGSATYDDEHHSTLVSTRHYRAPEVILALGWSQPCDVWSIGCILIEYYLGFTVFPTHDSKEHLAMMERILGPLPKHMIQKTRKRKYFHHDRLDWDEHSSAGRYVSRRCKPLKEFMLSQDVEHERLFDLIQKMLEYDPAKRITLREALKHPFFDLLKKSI

Focal adhesion kinase 1 = Focal adhesion kinase 1 (Homo sapiens, UniProt Q05397)
Description: Inhibition of N-terminal NanoLuc-tagged full length FAK (unknown origin) transfected in HEK293T cells pre-incubated with compound for 2 hrs followed by Nano-Glo substrate addition by NanoBRET analysis

SRSF protein kinase 1 [14] = target: T3, SRSF protein kinase 1; test: Inhibition of C-terminal nLuc-fused SRPK1 (unknown origin) transfected in intact HEK293T cells by NanoBRET assay
[15] = Metabolic stability in mouse liver microsomes assessed as intrinsic clearance
physchem = details: phosphate buffer, pH 7.4
[16] = Clearance in mouse hepatocytes measured per million of cells
SRSF protein kinase 2 [17] = target: T2, SRSF protein kinase 2; details: time 10.0 min
Target sequence in this assay (P78362 whole entry, looked up): as the sequence (P78362 whole entry) above

SRSF protein kinase 1 [18] = target: T3, SRSF protein kinase 1; details: time 10.0 min
[19] = Apparent permeability in human Caco-2 cells
[20] = Metabolic stability in human liver microsomes assessed as intrinsic clearance
SRSF protein kinase 3 [21] = target: T1, SRSF protein kinase 3; details: time 10.0 min
[22] = Thermodynamic solubility of the compound in phosphate buffer at pH 7.4
[23] = Clearance in human hepatocytes measured per million of cells
[24] = Efflux ratio of apparent permeability in human Caco-2 cells

Chain of Dual specificity tyrosine-phosphorylation-regulated kinase 1B (Q9Y463 whole entry): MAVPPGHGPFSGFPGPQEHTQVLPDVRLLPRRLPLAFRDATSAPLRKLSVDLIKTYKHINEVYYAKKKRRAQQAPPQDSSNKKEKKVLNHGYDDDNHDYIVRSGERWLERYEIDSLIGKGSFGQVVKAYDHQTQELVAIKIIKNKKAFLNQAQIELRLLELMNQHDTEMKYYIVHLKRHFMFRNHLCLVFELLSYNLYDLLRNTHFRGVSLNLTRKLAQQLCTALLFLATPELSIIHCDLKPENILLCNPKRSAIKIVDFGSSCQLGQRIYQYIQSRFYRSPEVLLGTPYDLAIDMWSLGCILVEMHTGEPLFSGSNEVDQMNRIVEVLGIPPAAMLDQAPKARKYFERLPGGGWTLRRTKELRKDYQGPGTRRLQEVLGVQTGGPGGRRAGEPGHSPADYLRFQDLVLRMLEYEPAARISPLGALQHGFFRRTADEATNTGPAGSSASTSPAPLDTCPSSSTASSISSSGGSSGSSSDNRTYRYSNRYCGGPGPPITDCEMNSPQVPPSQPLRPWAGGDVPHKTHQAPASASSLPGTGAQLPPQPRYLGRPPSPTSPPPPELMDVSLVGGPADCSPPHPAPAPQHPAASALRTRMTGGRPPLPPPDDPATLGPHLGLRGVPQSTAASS
T1 sequence (Q9UPE1 whole entry): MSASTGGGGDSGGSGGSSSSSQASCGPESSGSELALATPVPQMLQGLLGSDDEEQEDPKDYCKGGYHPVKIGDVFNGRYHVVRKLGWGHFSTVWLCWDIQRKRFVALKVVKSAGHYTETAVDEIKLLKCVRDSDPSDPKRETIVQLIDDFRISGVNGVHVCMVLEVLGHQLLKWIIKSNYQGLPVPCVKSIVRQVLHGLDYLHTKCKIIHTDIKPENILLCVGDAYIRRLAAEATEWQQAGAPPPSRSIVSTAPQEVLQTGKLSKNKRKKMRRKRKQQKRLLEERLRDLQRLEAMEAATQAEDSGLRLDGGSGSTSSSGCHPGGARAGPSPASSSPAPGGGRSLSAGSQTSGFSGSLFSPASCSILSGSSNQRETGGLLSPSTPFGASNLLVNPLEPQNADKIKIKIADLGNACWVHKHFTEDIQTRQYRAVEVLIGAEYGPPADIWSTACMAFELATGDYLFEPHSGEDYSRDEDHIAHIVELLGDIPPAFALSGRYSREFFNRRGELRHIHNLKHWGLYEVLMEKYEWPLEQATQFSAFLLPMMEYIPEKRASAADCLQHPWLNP

SMILES | IC50 (SRSF protein kinase 3 [1]) | IC50 (SRSF protein kinase 2 [2]) | IC50 [3] | IC50 [4] | IC50 [5] | IC50 [6] | IC50 (SRSF protein kinase 1 [7]) | IC50 [8] | IC50 [9] | IC50 [10] | IC50 [13] | other results
CCc1cc2c(cc1-c1cccc(S(=O)(=O)F)c1)C(C)(C)c1[nH]c3cc(C#N)ccc3c1C2=O | 4.81 nM | 2.54 nM | 293 nM | 225 nM | 159 nM | 920 nM | 1.68 nM | 6780 nM | 5720 nM | > 30000 nM |  | 
O=C(Nc1cc(C(F)(F)F)ccc1N1CCN(Cc2ccccn2)CC1)c1ccc(-c2ccncc2)o1 | 166 nM | 256 nM | 1840 nM | 1580 nM | 266 nM | 5700 nM |  | > 10000 nM | > 10000 nM | > 10000 nM | 839 nM | EC50 (SRSF protein kinase 2 [11]): 648 nM; EC50 (SRSF protein kinase 3 [12]): 6150 nM
c1ccc(-c2nc3ccccc3[nH]2)nc1 |  |  |  |  |  |  |  |  |  |  |  | EC50 (Focal adhesion kinase 1): 103000 nM
O=C(Nc1cc(C(F)(F)F)ccc1N1CCCCC1)c1ccncc1 | 27 nM | 1510 nM | > 10000 nM | > 10000 nM | > 10000 nM | > 10000 nM | 83 nM | > 10000 nM | > 10000 nM | > 10000 nM | > 10000 nM | EC50 (SRSF protein kinase 2 [11]): 2560 nM; EC50 (SRSF protein kinase 3 [12]): 398 nM; EC50 (SRSF protein kinase 1 [14]): 2360 nM
CN(c1ncccc1CNc1ccnc(-c2nc3c(F)c(Cl)ccc3[nH]2)n1)S(C)(=O)=O |  |  | > 10000 nM | > 10000 nM | > 10000 nM | > 10000 nM |  | > 10000 nM | > 10000 nM | > 10000 nM | > 10000 nM | CLint [15]: 196 µL/min/mg; solubility kinetic at 2 h (physchem): < 2 µM; hepatocyte CLint [16]: 354 µL/min/1e6 cells; ΔTm (SRSF protein kinase 2 [17]): 4 °C; ΔTm (SRSF protein kinase 1 [18]): 9.1 °C; Papp [19]: 7.2 ×10⁻⁶ cm/s; CLint [20]: 504 µL/min/mg; ΔTm (SRSF protein kinase 3 [21]): 9.6 °C; solubility thermodynamic [22]: < 1 µg/mL; hepatocyte CLint [23]: 51 µL/min/1e6 cells
c1ccc(-c2nn[nH]n2)nc1 |  |  |  |  |  |  |  |  |  |  |  | EC50 (Focal adhesion kinase 1): 253000 nM
CN(c1ncccc1CNc1ccnc(-c2cc3cc(Cl)ccc3[nH]2)n1)S(C)(=O)=O |  | > 10000 nM |  |  |  |  | > 10000 nM |  |  |  |  | efflux ratio [24]: 1.6; CLint [15]: 784 µL/min/mg; solubility kinetic at 2 h (physchem): 2.3 µM (≈ 1.02 µg/mL); hepatocyte CLint [16]: 1100 µL/min/1e6 cells; Papp [19]: 2 ×10⁻⁶ cm/s; CLint [20]: 771 µL/min/mg; solubility thermodynamic [22]: < 1 µg/mL; hepatocyte CLint [23]: 156 µL/min/1e6 cells
